Test results: ChEMBL document CHEMBL1201862, “PubChem BioAssay data set” (2004)
Calls of active or inactive are those of the source.

Tests used:
[1] = Fluorescence-based cell-based high throughput dose response assay for inhibitors of the interaction of nucleotide-binding oligomerization domain containing 2 (NOD2) and the receptor-interacting serine-threonine kinase 2 (RIPK2).; assay type: functional; settings: Homo sapiens
[2] = biological target: T1, Sphingosine 1-phosphate receptor 4 (Homo sapiens, UniProt O95977); assay: Fluorescence dose response cell-based high throughput screening assay for antagonists of the Sphingosine 1-Phosphate Receptor 4 (S1P4). [Related pubchem assays: 1524 (Confirmation in triplicates.), 1510 (Primary screen.)]; assay type: functional
T1 sequence (O95977 whole entry): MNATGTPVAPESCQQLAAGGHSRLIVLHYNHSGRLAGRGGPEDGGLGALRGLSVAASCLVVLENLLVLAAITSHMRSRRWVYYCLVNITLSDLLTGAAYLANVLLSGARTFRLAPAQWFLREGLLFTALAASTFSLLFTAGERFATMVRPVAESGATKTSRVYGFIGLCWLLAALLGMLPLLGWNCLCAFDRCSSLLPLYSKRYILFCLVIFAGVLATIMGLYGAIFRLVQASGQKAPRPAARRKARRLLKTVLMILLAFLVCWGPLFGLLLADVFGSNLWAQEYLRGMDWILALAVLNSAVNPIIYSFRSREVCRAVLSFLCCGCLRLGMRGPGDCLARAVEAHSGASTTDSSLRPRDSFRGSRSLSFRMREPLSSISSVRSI

[3] = biological target: Heat shock protein HSP 90-alpha (Homo sapiens, UniProt P07900); assay type: functional, organism-based
[4] = microbe, parasite or virus in culture; assay type: functional; settings: Mycobacterium tuberculosis
[5] = C. albicans growth with fluconazole, confirmation, fluorescence, retest (AID 2467); assay type: functional, cell-based
[6] = biological target: T2, Serine/threonine-protein phosphatase (Candida dubliniensis (strain CD36 / CBS 7987 / NCPF 3949 / NRRLY-17841) (Yeast), UniProt B9W6M3); assay: calcineurin pathway inhibitors in yeast reporter, dose response, S. cerevisiae, CDRE-lacZ, luminescence, secondary (AID 2388); assay type: functional, cell-based;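 further: yeast reporter cells carrying a calcineurin-responsive lacZ construct stimulated with calcium chloride; luminescent beta-galactosidase reporter signal in whole cells rather than isolated phosphatase activity; potency for inhibition where a drop in reporter signal means calcineurin blockade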
T2 sequence (B9W6M3 whole entry): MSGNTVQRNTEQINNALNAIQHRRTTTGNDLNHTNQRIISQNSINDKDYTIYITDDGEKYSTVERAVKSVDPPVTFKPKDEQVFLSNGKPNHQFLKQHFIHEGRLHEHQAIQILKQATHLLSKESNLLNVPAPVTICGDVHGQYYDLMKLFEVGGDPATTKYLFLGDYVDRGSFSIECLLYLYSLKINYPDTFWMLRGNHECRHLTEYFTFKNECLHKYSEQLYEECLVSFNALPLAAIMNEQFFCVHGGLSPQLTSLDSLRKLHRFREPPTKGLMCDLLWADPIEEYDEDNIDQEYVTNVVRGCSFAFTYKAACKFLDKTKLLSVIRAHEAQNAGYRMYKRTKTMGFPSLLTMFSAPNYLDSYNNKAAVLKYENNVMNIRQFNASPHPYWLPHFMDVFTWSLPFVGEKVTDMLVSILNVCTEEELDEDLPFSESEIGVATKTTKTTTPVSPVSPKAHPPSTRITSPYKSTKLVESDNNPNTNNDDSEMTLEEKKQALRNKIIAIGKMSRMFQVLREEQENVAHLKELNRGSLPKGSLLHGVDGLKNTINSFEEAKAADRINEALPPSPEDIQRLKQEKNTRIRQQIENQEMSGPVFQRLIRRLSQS

[7] = NIH-3T3 fibroblast cytotoxicity, dose response, cytotoxicity control, cell-based, fluorescence, Alamar Blue, secondary assay (AID 2327); assay type: functional;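 further: NIH-3T3 mouse fibroblasts cultured with fluconazole at 8 µg/mL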
[8] = biological target: ATP-dependent molecular chaperone HSP82 (Candida albicans (strain WO-1) (Yeast), UniProt C4YTQ8); assay: loss of DOC-induced GRE-beta-galactosidase reporter signal, dose response, Hsp90 inhibitor project, S. cerevisiae, luminescence (AID 2400); assay type: functional, cell-based;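 further: beta-galactosidase luminescence from glucocorticoid response element reporter as proxy for Hsp90 function; inhibitor potency where signal loss means Hsp90 inhibition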
[9] = biological target: T2, Serine/threonine-protein phosphatase; assay: Fluorescence Cell-Based Secondary Assay to Identify Inhibitors of Calcineurin. [Related pubchem assays (depositor defined):AID1979, AID2007]; assay type: functional
[10] = biological target: Sphingosine 1-phosphate receptor 1 (Homo sapiens, UniProt P21453); assay type: functional;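 further: Tango beta-arrestin reporter U2OS cells stimulated with S1P near its EC80; inhibitor potency meaning antagonism of receptor activation by the natural agonist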
[11] = biological target: Neurotensin receptor type 1 (Homo sapiens, UniProt P30989); assay type: functional;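 further: Image-based confirmatory dose-response assay measuring agonist activity at NTR1; NTR1-expressing U2OS osteosarcoma cells imaged for beta-arrestin GFP spot formation; agonist potency where compounds increase beta-arrestin recruitment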
NS3 = NS3 (Hepatitis C virus, UniProt A3EZJ3); assay: PubChem AID 2173; parameters: species or system Hepacivirus hominis
[12] = Luminescence Cell-Based Dose Retest to Confirm Inhibitors of Cancer Stem Cells. [Related pubchem assays (depositor defined):AID2717, AID2721]; assay type: functional; settings: Homo sapiens
[13] = biological target: T3, Heat shock factor protein 1 (Mus musculus, UniProt P38532); assay: HSF1 potentiators in luciferase reporter cells, confirmation, cell-based, NIH3T3, luminescence, dose retest (AID 435004); assay type: functional;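 further: stress induced by proteasome inhibitor MG132 added 30 min after compound; luciferase reporter driven by HSF1 response element in NIH3T3 cells; actives raise luminescence as potentiators of the MG132 stress response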
T3 sequence (P38532 whole entry): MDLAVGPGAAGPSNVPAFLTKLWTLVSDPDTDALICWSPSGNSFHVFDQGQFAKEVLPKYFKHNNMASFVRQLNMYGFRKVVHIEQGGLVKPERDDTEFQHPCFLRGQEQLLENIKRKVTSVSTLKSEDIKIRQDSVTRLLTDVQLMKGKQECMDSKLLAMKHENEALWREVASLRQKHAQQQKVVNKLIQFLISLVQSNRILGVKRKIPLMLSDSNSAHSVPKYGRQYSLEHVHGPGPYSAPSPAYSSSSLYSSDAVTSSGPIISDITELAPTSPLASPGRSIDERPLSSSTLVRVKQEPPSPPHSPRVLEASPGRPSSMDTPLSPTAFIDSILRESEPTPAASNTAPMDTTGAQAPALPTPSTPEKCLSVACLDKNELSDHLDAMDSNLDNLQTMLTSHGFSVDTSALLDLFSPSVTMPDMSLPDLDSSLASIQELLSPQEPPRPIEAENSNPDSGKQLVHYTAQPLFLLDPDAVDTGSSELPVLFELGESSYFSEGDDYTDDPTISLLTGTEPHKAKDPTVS

[14] = biological target: Hepatocyte nuclear factor 4-alpha (Homo sapiens, UniProt P41235); assay type: functional, cell-based;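 further: biochemical luminescence-based dose-response counterscreen measuring inhibition of HNF4 dimerization, run alongside a screen for blockers of ABHD5–perilipin-5 interaction; split luciferase complementation of HNF4 fusion proteins in cell lysate measuring dimerization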
[15] = Counterscreen for IDE inhibitors: Luminescence-based cell-based high throughput dose response assay to identify compounds that are cytotoxic to HEK cells. [Related pubchem assays: 434962 (Primary screen (IDE inhibitors in singlicate)), 449730 (Counterscreen (Cytotoxicity in triplicate)), 435028 (Confirmation (IDE inhibitors in triplicate)) …; assay type: functional; settings: HEK293
Insulin-degrading enzyme = biological target: T4, Insulin-degrading enzyme (Homo sapiens, UniProt P14735); assay: Dose Response: Fluorescence polarization-based cell-based high throughput dose response assay for inhibitors of insulin-degrading enzyme (IDE). [Related pubchem assays: 434962 (Primary screen (IDE inhibitors in singlicate)), 449730 (Counterscreen (Cytotoxicity in triplicate)), 435028 (Confirmation (IDE inhibitors in triplicate)), 434984 (Summary …; assay type: functional
T4 sequence (P14735 whole entry): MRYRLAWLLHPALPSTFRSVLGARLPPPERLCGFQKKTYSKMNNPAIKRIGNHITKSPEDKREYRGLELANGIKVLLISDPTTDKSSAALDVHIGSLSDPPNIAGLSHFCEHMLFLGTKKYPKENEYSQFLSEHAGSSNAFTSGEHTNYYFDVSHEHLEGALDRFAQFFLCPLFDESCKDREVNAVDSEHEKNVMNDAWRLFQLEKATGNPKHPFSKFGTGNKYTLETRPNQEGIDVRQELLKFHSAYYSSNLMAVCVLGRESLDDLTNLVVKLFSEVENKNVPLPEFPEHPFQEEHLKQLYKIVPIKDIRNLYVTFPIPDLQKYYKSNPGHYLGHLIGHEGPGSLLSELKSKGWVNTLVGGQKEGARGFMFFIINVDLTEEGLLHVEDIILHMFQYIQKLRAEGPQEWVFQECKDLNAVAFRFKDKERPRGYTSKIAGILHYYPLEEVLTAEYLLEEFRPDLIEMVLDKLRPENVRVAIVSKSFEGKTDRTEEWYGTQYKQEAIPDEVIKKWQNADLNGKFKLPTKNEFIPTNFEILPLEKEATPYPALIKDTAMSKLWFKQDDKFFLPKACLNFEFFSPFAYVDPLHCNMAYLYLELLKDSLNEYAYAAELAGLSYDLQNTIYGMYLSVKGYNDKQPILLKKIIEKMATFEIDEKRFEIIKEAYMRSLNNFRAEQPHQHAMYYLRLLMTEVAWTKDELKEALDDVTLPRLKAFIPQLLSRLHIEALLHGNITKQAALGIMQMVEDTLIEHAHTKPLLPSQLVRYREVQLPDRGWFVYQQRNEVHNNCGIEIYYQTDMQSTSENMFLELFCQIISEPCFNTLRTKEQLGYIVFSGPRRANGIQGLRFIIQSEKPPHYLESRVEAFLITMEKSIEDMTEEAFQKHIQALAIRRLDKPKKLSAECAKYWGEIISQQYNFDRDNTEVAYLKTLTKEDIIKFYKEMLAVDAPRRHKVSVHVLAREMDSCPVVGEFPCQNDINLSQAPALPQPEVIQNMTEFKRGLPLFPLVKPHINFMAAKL

[16] = miR-122 activators in hepatoma reporter cells, dose response, cell-based, Huh7 psiCHECK-miR122, Renilla luciferase, cherry-picked (AID 651956); assay type: functional;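 further: huh7 hepatoma cells stably carrying a psiCHECK-2 miR-122 sensor plasmid; renilla luciferase signal reporting endogenous miR-122 activity after 48 h compound exposure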
Paired box protein Pax-8 = Paired box protein Pax-8 (Homo sapiens, UniProt Q06710); assay: inhibitors of PAX8-driven TPO luciferase reporter, dose response, RMG-I cells, cherry-pick (AID 687027); assay type: functional, cell-based;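 further: luciferase reporter driven by Pax8 target thyroperoxidase promoter measured by SteadyGlo luminescence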
[17] = IOSE-T80 ovarian epithelial cell cytotoxicity, dose response, cytotoxicity control for PAX8 inhibitor project, plate reader, dry powder samples (AID 743045); assay type: functional, cell-based
[18] = lymphoblastoid cell cytotoxicity, dose response, cytotoxicity control, plate reader, dry powder, set 2 (AID 624367); assay type: functional
[19] = cytotoxicity in OVCAR8 ovarian cancer cells, dose response, PAX8 project, cell-based, plate reader, dry powder samples (AID 743197); assay type: functional; settings: OVCAR-8
[20] = IGROV1 ovarian cancer cell cytotoxicity, dose response, PAX8 inhibitor project, plate reader, dry powder samples (AID 743043); assay type: functional, cell-based; settings: IGROV-1
[21] = NIH:OVCAR-3 ovarian cancer cell cytotoxicity, dose response, PAX8 inhibitor project, plate reader, dry powder samples (AID 743044); assay type: functional, cell-based
[22] = A2780 ovarian cancer cell cytotoxicity, dose response, cytotoxicity control, plate reader, dry powder samples (AID 743046); assay type: functional, cell-based

Sequence of NS3 (A3EZJ3 whole entry): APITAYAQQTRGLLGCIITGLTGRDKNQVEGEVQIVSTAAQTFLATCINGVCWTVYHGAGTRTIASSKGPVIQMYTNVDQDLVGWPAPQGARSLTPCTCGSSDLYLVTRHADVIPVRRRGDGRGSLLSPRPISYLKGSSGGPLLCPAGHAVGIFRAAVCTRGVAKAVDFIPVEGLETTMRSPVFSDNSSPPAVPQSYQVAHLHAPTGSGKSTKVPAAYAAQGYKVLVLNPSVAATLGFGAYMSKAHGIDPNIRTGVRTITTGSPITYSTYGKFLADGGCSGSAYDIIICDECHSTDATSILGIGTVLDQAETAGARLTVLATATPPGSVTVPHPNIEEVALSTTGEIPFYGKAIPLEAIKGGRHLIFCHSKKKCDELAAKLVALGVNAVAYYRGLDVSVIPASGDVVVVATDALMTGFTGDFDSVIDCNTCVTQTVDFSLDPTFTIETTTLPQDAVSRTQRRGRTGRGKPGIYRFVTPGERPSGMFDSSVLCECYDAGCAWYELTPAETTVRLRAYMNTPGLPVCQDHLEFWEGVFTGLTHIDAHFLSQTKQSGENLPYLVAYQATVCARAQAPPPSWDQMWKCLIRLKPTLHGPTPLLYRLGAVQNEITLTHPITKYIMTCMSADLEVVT
Sequence of ATP-dependent molecular chaperone HSP82 (C4YTQ8 whole entry): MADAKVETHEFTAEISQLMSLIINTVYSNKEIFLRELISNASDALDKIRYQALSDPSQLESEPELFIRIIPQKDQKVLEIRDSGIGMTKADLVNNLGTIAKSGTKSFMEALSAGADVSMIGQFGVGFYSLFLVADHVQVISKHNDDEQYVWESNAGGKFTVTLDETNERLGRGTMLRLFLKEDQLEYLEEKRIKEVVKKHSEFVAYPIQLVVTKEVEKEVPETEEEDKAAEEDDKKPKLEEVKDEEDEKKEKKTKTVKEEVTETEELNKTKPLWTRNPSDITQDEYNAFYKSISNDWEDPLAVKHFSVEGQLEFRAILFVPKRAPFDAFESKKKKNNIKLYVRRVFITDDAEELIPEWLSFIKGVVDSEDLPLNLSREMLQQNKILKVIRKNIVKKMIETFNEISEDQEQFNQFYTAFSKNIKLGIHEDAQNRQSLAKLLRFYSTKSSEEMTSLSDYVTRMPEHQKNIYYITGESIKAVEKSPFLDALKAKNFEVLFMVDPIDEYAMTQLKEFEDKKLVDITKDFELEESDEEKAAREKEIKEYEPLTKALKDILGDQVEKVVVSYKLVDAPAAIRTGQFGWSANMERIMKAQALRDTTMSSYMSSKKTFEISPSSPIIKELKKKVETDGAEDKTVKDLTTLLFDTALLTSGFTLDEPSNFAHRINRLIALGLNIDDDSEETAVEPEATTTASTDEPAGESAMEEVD
Sequence of Paired box protein Pax-8 (Q06710 whole entry): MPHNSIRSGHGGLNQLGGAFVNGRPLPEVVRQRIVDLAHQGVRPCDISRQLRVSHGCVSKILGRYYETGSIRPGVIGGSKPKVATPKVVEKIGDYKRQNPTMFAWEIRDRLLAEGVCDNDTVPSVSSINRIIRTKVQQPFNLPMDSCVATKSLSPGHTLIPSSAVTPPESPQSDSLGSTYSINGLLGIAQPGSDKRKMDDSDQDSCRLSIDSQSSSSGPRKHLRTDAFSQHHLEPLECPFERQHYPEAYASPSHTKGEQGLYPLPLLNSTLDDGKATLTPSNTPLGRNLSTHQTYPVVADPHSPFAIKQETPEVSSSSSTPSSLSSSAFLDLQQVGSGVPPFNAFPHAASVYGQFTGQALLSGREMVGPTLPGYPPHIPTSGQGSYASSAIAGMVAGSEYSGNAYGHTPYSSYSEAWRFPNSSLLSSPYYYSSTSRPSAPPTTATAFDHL
Sequence of Sphingosine 1-phosphate receptor 1 (P21453 whole entry): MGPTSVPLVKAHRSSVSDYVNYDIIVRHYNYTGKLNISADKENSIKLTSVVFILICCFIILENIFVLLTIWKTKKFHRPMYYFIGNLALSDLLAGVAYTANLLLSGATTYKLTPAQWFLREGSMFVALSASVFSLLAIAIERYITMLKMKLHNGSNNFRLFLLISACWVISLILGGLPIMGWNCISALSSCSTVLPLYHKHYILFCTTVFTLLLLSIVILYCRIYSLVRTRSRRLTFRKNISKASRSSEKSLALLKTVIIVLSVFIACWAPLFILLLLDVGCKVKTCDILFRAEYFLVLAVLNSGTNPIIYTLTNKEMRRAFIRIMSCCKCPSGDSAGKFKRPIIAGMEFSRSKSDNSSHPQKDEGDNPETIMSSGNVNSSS
Sequence of Hepatocyte nuclear factor 4-alpha (P41235 whole entry, the tested form may be a part): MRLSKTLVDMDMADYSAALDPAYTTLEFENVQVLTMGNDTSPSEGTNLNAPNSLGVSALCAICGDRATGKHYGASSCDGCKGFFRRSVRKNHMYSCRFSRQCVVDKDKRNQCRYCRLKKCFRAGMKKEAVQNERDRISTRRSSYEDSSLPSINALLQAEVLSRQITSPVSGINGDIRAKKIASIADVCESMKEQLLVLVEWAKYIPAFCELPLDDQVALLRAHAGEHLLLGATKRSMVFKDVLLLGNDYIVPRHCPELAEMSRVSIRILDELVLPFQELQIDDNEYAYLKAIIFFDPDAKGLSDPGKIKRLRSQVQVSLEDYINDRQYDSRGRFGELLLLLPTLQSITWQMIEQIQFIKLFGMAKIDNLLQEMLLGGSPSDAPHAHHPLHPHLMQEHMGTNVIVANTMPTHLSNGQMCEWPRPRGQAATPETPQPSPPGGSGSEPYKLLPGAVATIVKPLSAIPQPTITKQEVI
Sequence of Neurotensin receptor type 1 (P30989 whole entry): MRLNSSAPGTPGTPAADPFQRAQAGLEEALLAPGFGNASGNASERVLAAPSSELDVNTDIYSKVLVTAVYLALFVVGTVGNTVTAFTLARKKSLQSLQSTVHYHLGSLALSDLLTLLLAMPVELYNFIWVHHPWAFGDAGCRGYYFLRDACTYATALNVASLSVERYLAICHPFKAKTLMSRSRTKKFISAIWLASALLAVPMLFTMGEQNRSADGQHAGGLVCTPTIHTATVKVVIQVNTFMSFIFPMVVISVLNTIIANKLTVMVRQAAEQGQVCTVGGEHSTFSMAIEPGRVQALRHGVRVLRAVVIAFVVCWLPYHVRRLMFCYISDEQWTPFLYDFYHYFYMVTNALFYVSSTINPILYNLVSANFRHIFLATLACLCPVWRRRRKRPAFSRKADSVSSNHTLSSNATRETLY

CCc1ccc2c(c1)/C(=C/C(=O)c1cccs1)C(=O)N2
IC50 [1]: 4.53 µM (active) | IC50 [2]: 1.46 µM (active) | AC50 [3]: 4.18 µM (active) | CC50 [4]: 7.23 µM (active) | EC50 [5]: 6.49 µM (active) | EC50 [6]: > 180 µM (inactive) | EC50 [7]: > 150 µM (inactive) | EC50 [8]: 1.25 µM (active) | EC50 [9]: 5.99 µM (active) | IC50 [10]: 20.9 µM (not active) | EC50 [11]: 17.7 µM (active)

Cc1ccc(C(=O)/C=C/c2cc(Br)cc(Br)c2O)o1
IC50 (NS3): 9.14 µM (active) | AC50 [12]: 3.09 µM (active) | EC50 [13]: 16.8 µM (active) | IC50 [14]: 11 µM (inactive) | IC50 [15]: 19.8 µM (not active) | IC50 (Insulin-degrading enzyme): 21 µM (not active)

CC(C)C#Cc1ccc2c(c1)O[C@H](CN(C)C(=O)c1ccncc1)[C@H](C)CN([C@H](C)CO)S2(=O)=O
AC50 [16]: 3.04 µM (active)

O=C(C[C@@H]1C[C@H]2c3cc(NS(=O)(=O)c4ccc(F)cc4)ccc3O[C@H]2[C@@H](CO)O1)NCc1ccc(Oc2ccccc2)cc1
AC50 (Paired box protein Pax-8): 7.32 µM (active) | AC50 [17]: 26.7 µM (active) | AbsAC35 [18]: 42.5 µM | AC50 [19]: 43.5 µM (active) | AC50 [20]: 44.3 µM (active) | AC50 [21]: 21.5 µM (active) | AC50 [22]: 45.6 µM (active)
